Values quoted from earlier work, collected in publication PMC8288134, “Synthesis, potential antitumor activity, cell cycle analysis, and multitarget mechanisms of novel hydrazones incorporating a 4-methylsulfonylbenzene scaffold: a molecular docking study” (Journal of Enzyme Inhibition and Medicinal Chemistry, 2021).

Key:
[1] = tested on: ovarian cancer tumour cell lines; conditions: cited from earlier work; for GI50: read-out: GI50 (subpanel average), reference drugs, ref https://dtp.cancer.gov/dtpstandard/dwindex/index.jsp; for TGI (subpanel average): reference drugs, ref https://dtp.cancer.gov/dtpstandard/dwindex/index.jsp
SN12C = tested on: SN12C; design: method as in https://dtp.cancer.gov/dtpstandard/dwindex/index.jsp; conditions: reference drugs, ref https://dtp.cancer.gov/dtpstandard/dwindex/index.jsp; cited from earlier work
TK-10 = tested on: TK-10; design: method as in https://dtp.cancer.gov/dtpstandard/dwindex/index.jsp; conditions: reference drugs, ref https://dtp.cancer.gov/dtpstandard/dwindex/index.jsp; cited from earlier work
RXF 393 = tested on: RXF 393; design: method as in https://dtp.cancer.gov/dtpstandard/dwindex/index.jsp; conditions: reference drugs, ref https://dtp.cancer.gov/dtpstandard/dwindex/index.jsp; cited from earlier work
UACC-62 = tested on: UACC-62; design: method as in https://dtp.cancer.gov/dtpstandard/dwindex/index.jsp; conditions: reference drugs, ref https://dtp.cancer.gov/dtpstandard/dwindex/index.jsp; cited from earlier work
OVCAR-5 = tested on: OVCAR-5; design: method as in https://dtp.cancer.gov/dtpstandard/dwindex/index.jsp; conditions: reference drugs, ref https://dtp.cancer.gov/dtpstandard/dwindex/index.jsp; cited from earlier work
[2] = tested on: NSC lung cancer tumour cell lines; conditions: cited from earlier work; for GI50: read-out: GI50 (subpanel average), reference drugs, ref https://dtp.cancer.gov/dtpstandard/dwindex/index.jsp; for TGI (subpanel average): reference drugs, ref https://dtp.cancer.gov/dtpstandard/dwindex/index.jsp
HS 578 T = tested on: HS 578 T; design: method as in https://dtp.cancer.gov/dtpstandard/dwindex/index.jsp; conditions: reference drugs, ref https://dtp.cancer.gov/dtpstandard/dwindex/index.jsp; cited from earlier work
K-562 = tested on: K-562; design: method as in https://dtp.cancer.gov/dtpstandard/dwindex/index.jsp; conditions: reference drugs, ref https://dtp.cancer.gov/dtpstandard/dwindex/index.jsp; cited from earlier work
HOP-62 = tested on: HOP-62; design: method as in https://dtp.cancer.gov/dtpstandard/dwindex/index.jsp; conditions: reference drugs, ref https://dtp.cancer.gov/dtpstandard/dwindex/index.jsp; cited from earlier work
[3] = tested on: full panel of 59 cancer cell lines; conditions: cited from earlier work; for GI50: read-out: GI50 MG-MID (full panel mean-graph midpoint), reference drugs, ref https://dtp.cancer.gov/dtpstandard/dwindex/index.jsp; for TGI MG-MID (full panel mean-graph midpoint): reference drugs, ref https://dtp.cancer.gov/dtpstandard/dwindex/index.jsp
[4] = tested on: colon cancer tumour cell lines; conditions: cited from earlier work; for GI50: read-out: GI50 (subpanel average), reference drugs, ref https://dtp.cancer.gov/dtpstandard/dwindex/index.jsp; for TGI (subpanel average): reference drugs, ref https://dtp.cancer.gov/dtpstandard/dwindex/index.jsp
HCT-116 = tested on: HCT-116; design: method as in https://dtp.cancer.gov/dtpstandard/dwindex/index.jsp; conditions: reference drugs, ref https://dtp.cancer.gov/dtpstandard/dwindex/index.jsp; cited from earlier work
IGROV1 = tested on: IGROV1; design: method as in https://dtp.cancer.gov/dtpstandard/dwindex/index.jsp; conditions: reference drugs, ref https://dtp.cancer.gov/dtpstandard/dwindex/index.jsp; cited from earlier work
MOLT-4 = tested on: MOLT-4; design: method as in https://dtp.cancer.gov/dtpstandard/dwindex/index.jsp; conditions: reference drugs, ref https://dtp.cancer.gov/dtpstandard/dwindex/index.jsp; cited from earlier work
NCI-H23 = tested on: NCI-H23; design: method as in https://dtp.cancer.gov/dtpstandard/dwindex/index.jsp; conditions: reference drugs, ref https://dtp.cancer.gov/dtpstandard/dwindex/index.jsp; cited from earlier work
HL-60(TB) = tested on: HL-60(TB); design: method as in https://dtp.cancer.gov/dtpstandard/dwindex/index.jsp; conditions: reference drugs, ref https://dtp.cancer.gov/dtpstandard/dwindex/index.jsp; cited from earlier work
CAKI-1 = tested on: CAKI-1; design: method as in https://dtp.cancer.gov/dtpstandard/dwindex/index.jsp; conditions: reference drugs, ref https://dtp.cancer.gov/dtpstandard/dwindex/index.jsp; cited from earlier work
T-47D = tested on: T-47D; design: method as in https://dtp.cancer.gov/dtpstandard/dwindex/index.jsp; conditions: reference drugs, ref https://dtp.cancer.gov/dtpstandard/dwindex/index.jsp; cited from earlier work
NCI-H226 = tested on: NCI-H226; design: method as in https://dtp.cancer.gov/dtpstandard/dwindex/index.jsp; conditions: reference drugs, ref https://dtp.cancer.gov/dtpstandard/dwindex/index.jsp; cited from earlier work
HCC-2998 = tested on: HCC-2998; design: method as in https://dtp.cancer.gov/dtpstandard/dwindex/index.jsp; conditions: reference drugs, ref https://dtp.cancer.gov/dtpstandard/dwindex/index.jsp; cited from earlier work
DU-145 = tested on: DU-145; design: method as in https://dtp.cancer.gov/dtpstandard/dwindex/index.jsp; conditions: reference drugs, ref https://dtp.cancer.gov/dtpstandard/dwindex/index.jsp; cited from earlier work
NCI-H522 = tested on: NCI-H522; design: method as in https://dtp.cancer.gov/dtpstandard/dwindex/index.jsp; conditions: reference drugs, ref https://dtp.cancer.gov/dtpstandard/dwindex/index.jsp; cited from earlier work
[5] = read-out: LC50 (subpanel average), reference drugs, ref https://dtp.cancer.gov/dtpstandard/dwindex/index.jsp

| Structure (SMILES) | GI50 [1] | TGI (subpanel average) [1] | GI50 (SN12C) | GI50 (TK-10) | GI50 (RXF 393) | GI50 (UACC-62) | GI50 (OVCAR-5) | GI50 (HS 578 T) | GI50 (K-562) | GI50 (HOP-62) | GI50 (HCT-116) | GI50 (IGROV1) | GI50 (MOLT-4) | GI50 (NCI-H23) | GI50 (HL-60(TB)) | GI50 (T-47D) | GI50 (NCI-H226) | GI50 (HCC-2998) | GI50 (DU-145) | GI50 (NCI-H522) | further results |
| --- | --- | --- | --- | --- | --- | --- | --- | --- | --- | --- | --- | --- | --- | --- | --- | --- | --- | --- | --- | --- | --- |
| C#Cc1cccc(Nc2ncnc3cc(OCCOC)c(OCCOC)cc23)c1 [Erlotinib, erlotinib] | 5.52 µM | 74.41 µM | 1.58 µM | 0.251 µM | 3.98 µM | 3.16 µM | 7.94 µM | 6.31 µM | 31.6 µM | 15.8 µM | 6.31 µM | 0.316 µM | 25.1 µM | 31.6 µM | 25.1 µM | 3.98 µM | 39.8 µM | 79.4 µM | 1.99 µM | 1 µM | CC50 [1, 5]: 97.1 µM; GI50 [2]: 13.1 µM; CC50 [2, 5]: 97.7 µM; TGI (subpanel average) [2]: 73.76 µM; GI50 [3]: 7.68 µM; CC50 ([3]; read-out: LC50 MG-MID (full panel mean-graph midpoint), reference drugs, ref https://dtp.cancer.gov/dtpstandard/dwindex/index.jsp): 95.6 µM; TGI MG-MID (full panel mean-graph midpoint) [3]: 66.3 µM; GI50 [4]: 51.7 µM; CC50 [4, 5]: > 100 µM; TGI (subpanel average) [4]: c (Compounds showed values ≥ 100 µM); GI50 (CAKI-1): 0.199 µM |
| CS(=O)(=O)c1ccc(C(=O)Nc2ccc(Cl)c(-c3ccccn3)c2)c(Cl)c1 [Vismodegib, vismodegib] | – | – | 39.8 µM | 63.1 µM | 25.1 µM | 31.6 µM | 100 µM | 79.4 µM | 31.6 µM | 79.4 µM | 50.1 µM | 100 µM | 31.6 µM | 50.1 µM | 31.6 µM | 31.6 µM | 50.1 µM | 39.8 µM | 50.1 µM | 25.1 µM | GI50 (CAKI-1): 79.4 µM |
| COc1cc2ncnc(Nc3ccc(F)c(Cl)c3)c2cc1OCCCN1CCOCC1 [Gefitinib, gefitinib] | 3.05 µM | 33.29 µM | 1.26 µM | 0.794 µM | 3.16 µM | 2 µM | 3.98 µM | 7.94 µM | 2.51 µM | 3.16 µM | 3.16 µM | 3.16 µM | 2 µM | 2.51 µM | 1 µM | 7.94 µM | 3.98 µM | 2.51 µM | 1.58 µM | 1 µM | GI50 [2]: 2.05 µM; TGI (subpanel average) [2]: 13.86 µM; GI50 [3]: 2.1 µM; TGI MG-MID (full panel mean-graph midpoint) [3]: 14.3 µM; GI50 [4]: 5.23 µM; TGI (subpanel average) [4]: 18.47 µM |
